Experimental data: PubChem BioAssay AID2060906 (Molecular Pharmacology Branch, DTP, NCI, 2025)

System: 485176-168-R4-J1-PDC complex spheroid growth
Assay: Anticancer human tumor 485176-168-R4-J1-PDC patient-derived pancreatic adenocarcinoma cell line growth inhibition [RAS]
Settings: for viability, T/C: stronger effect = lower value
Outline: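 Tumour cells grown as complex spheroids with HUVEC endothelial cells and mesenchymal stem cells, treated with RAS pathway inhibitor combinations. Each agent spans half-log steps from near clinical Cmax, or 10 microM where Cmax is unknown.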
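Further: spheroids exposed to compounds for seven days before readout.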
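Wherever viability, T/C is given: luminescence viability expressed relative to DMSO vehicle wells set as 100%.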

Work on `CCN1CCN(Cc2ccc(Nc3ncc(F)c(-c4cc(F)c5nc(C)n(C(C)C)c5c4)n3)nc2)CC1` + CCn1c(-c2cccnc2C(C)OC)c2c3cc(ccc31)N1CCOC(CC(NC(=O)C(C(C)C)N(C)C(=O)C3(F)CCN(C(=O)C#CC(C)(C)N(C)C)CC3)C(=O)N3CCCC(N3)C(=O)OCC(C)(C)C2)C1 yielded an IC50 (curve of first compound, second compound 0.000949 µM) of over 1 µM, an IC50 (curve of first compound, second compound 0.003 µM) of over 1 µM and an IC50 (curve of first compound, second compound 0.00949 µM) of over 1 µM. It also gave an IC50 (curve of first compound, second compound 0.03 µM) of over 1 µM, an IC50 (curve of first compound, second compound 0.0949 µM) of over 1 µM and an IC50 (curve of first compound, second compound 0.3 µM) of over 1 µM. For the same molecule, the viability, T/C (second compound 0.000949 µM, first compound 0.00316 µM) was 93.4%, the viability, T/C (second compound 0.000949 µM, first compound 0.01 µM) was 103% and the viability, T/C (second compound 0.000949 µM, first compound 0.0316 µM) was 100%. For the same molecule, the viability, T/C (second compound 0.000949 µM, first compound 0.1 µM) was 83.7%, the viability, T/C (second compound 0.000949 µM, first compound 0.316 µM) was 96.5% and the viability, T/C (second compound 0.000949 µM, first compound 1 µM) was 64.5%. For the same molecule, the viability, T/C (second compound 0.003 µM, first compound 0.00316 µM) was 92%, the viability, T/C (second compound 0.003 µM, first compound 0.01 µM) was 92.4% and the viability, T/C (second compound 0.003 µM, first compound 0.0316 µM) was 89.6%. For the same molecule, the viability, T/C (second compound 0.003 µM, first compound 0.1 µM) was 99.3%, the viability, T/C (second compound 0.003 µM, first compound 0.316 µM) was 74.2% and the viability, T/C (second compound 0.003 µM, first compound 1 µM) was 67.8%. The viability, T/C (second compound 0.00949 µM, first compound 0.00316 µM) was 101%, the viability, T/C (second compound 0.00949 µM, first compound 0.01 µM) was 101% and the viability, T/C (second compound 0.00949 µM, first compound 0.0316 µM) was 94.3%. The viability, T/C (second compound 0.00949 µM, first compound 0.1 µM) was 89.1%, the viability, T/C (second compound 0.00949 µM, first compound 0.316 µM) was 74.5% and the viability, T/C (second compound 0.00949 µM, first compound 1 µM) was 75%. For the same molecule, the viability, T/C (second compound 0.03 µM, first compound 0.00316 µM) was 86.2%, the viability, T/C (second compound 0.03 µM, first compound 0.01 µM) was 91% and the viability, T/C (second compound 0.03 µM, first compound 0.0316 µM) was 87.6%. The viability, T/C (second compound 0.03 µM, first compound 0.1 µM) was 72.8%, the viability, T/C (second compound 0.03 µM, first compound 0.316 µM) was 72% and the viability, T/C (second compound 0.03 µM, first compound 1 µM) was 67.4%. The viability, T/C (second compound 0.0949 µM, first compound 0.00316 µM) was 104%, the viability, T/C (second compound 0.0949 µM, first compound 0.01 µM) was 85.2% and the viability, T/C (second compound 0.0949 µM, first compound 0.0316 µM) was 84.4%. It also gave a viability, T/C (second compound 0.0949 µM, first compound 0.1 µM) of 75.9%, a viability, T/C (second compound 0.0949 µM, first compound 0.316 µM) of 80% and a viability, T/C (second compound 0.0949 µM, first compound 1 µM) of 74%. For the same molecule, the viability, T/C (second compound 0.3 µM, first compound 0.00316 µM) was 80.7%, the viability, T/C (second compound 0.3 µM, first compound 0.01 µM) was 84.4% and the viability, T/C (second compound 0.3 µM, first compound 0.0316 µM) was 73.2%. The viability, T/C (second compound 0.3 µM, first compound 0.1 µM) was 75.2%, the viability, T/C (second compound 0.3 µM, first compound 0.316 µM) was 75.9% and the viability, T/C (second compound 0.3 µM, first compound 1 µM) was 57.4%.
For `Cc1nc(N2CCC3(CC2)COC(C)C3N)c(CO)nc1Sc1ccnc(N)c1Cl` (stereo unspecified) + C=CC(=O)N1CCN(c2nc(OCC3CCCN3C)nc3c(F)c(-c4nc(N)cc(C)c4C(F)(F)F)c(Cl)cc23)C(C)C1, the IC50 (curve of first compound, second compound 0.00316 µM) was over 10 µM, the IC50 (curve of first compound, second compound 0.01 µM) was over 10 µM and the IC50 (curve of first compound, second compound 0.0316 µM) was over 10 µM. It also gave an IC50 (curve of first compound, second compound 0.1 µM) of over 10 µM, an IC50 (curve of first compound, second compound 0.316 µM) of over 10 µM and an IC50 (curve of first compound, second compound 1 µM) of over 10 µM. It also gave a viability, T/C (second compound 0.00316 µM, first compound 0.0316 µM) of 95.1%, a viability, T/C (second compound 0.00316 µM, first compound 0.1 µM) of 91.5% and a viability, T/C (second compound 0.00316 µM, first compound 0.316 µM) of 77.3%. For the same molecule, the viability, T/C (second compound 0.00316 µM, first compound 1 µM) was 71.3%, the viability, T/C (second compound 0.00316 µM, first compound 3.16 µM) was 79.7% and the viability, T/C (second compound 0.00316 µM, first compound 10 µM) was 76%. The viability, T/C (second compound 0.01 µM, first compound 0.0316 µM) was 96.3%, the viability, T/C (second compound 0.01 µM, first compound 0.1 µM) was 76.5% and the viability, T/C (second compound 0.01 µM, first compound 0.316 µM) was 78.7%. The viability, T/C (second compound 0.01 µM, first compound 1 µM) was 74.2%, the viability, T/C (second compound 0.01 µM, first compound 3.16 µM) was 75.3% and the viability, T/C (second compound 0.01 µM, first compound 10 µM) was 90.6%. The viability, T/C (second compound 0.0316 µM, first compound 0.0316 µM) was 94%, the viability, T/C (second compound 0.0316 µM, first compound 0.1 µM) was 91.5% and the viability, T/C (second compound 0.0316 µM, first compound 0.316 µM) was 87.2%. For the same molecule, the viability, T/C (second compound 0.0316 µM, first compound 1 µM) was 71.8%, the viability, T/C (second compound 0.0316 µM, first compound 3.16 µM) was 66.6% and the viability, T/C (second compound 0.0316 µM, first compound 10 µM) was 71.7%. The viability, T/C (second compound 0.1 µM, first compound 0.0316 µM) was 91.1%, the viability, T/C (second compound 0.1 µM, first compound 0.1 µM) was 92.8% and the viability, T/C (second compound 0.1 µM, first compound 0.316 µM) was 82.5%. It also gave a viability, T/C (second compound 0.1 µM, first compound 1 µM) of 65.1%, a viability, T/C (second compound 0.1 µM, first compound 3.16 µM) of 77.6% and a viability, T/C (second compound 0.1 µM, first compound 10 µM) of 74.6%. It also gave a viability, T/C (second compound 0.316 µM, first compound 0.0316 µM) of 101%, a viability, T/C (second compound 0.316 µM, first compound 0.1 µM) of 99.8% and a viability, T/C (second compound 0.316 µM, first compound 0.316 µM) of 81.8%. It also gave a viability, T/C (second compound 0.316 µM, first compound 1 µM) of 83.6%, a viability, T/C (second compound 0.316 µM, first compound 3.16 µM) of 74.2% and a viability, T/C (second compound 0.316 µM, first compound 10 µM) of 71%. For the same molecule, the viability, T/C (second compound 1 µM, first compound 0.0316 µM) was 103%, the viability, T/C (second compound 1 µM, first compound 0.1 µM) was 91% and the viability, T/C (second compound 1 µM, first compound 0.316 µM) was 80.4%. It also gave a viability, T/C (second compound 1 µM, first compound 1 µM) of 73.2%, a viability, T/C (second compound 1 µM, first compound 3.16 µM) of 81.5% and a viability, T/C (second compound 1 µM, first compound 10 µM) of 76.5%.
`C[C@@H](NC(=O)c1ncnc(N)c1Cl)c1ncc(C(=O)Nc2cc(C(F)(F)F)c(Cl)cn2)s1` was tested, and the viability, T/C (compound 0.0316 µM) was 105% [middle of 4 runs], the viability, T/C (compound 0.1 µM) was 96% [middle of 4 runs] and the viability, T/C (compound 0.316 µM) was 88.5% [middle of 4 runs]. For the same molecule, the viability, T/C (compound 1 µM) was 79.2% [middle of 4 runs], the viability, T/C (compound 3.16 µM) was 79.1% [middle of 4 runs] and the viability, T/C (compound 10 µM) was 60.9% [middle of 4 runs]. For the same molecule, the IC50 (curve of compound) was over 10 µM.
